According to patent US5428182A, “Bile acid derivatives, process for their preparation and use of these compounds as pharmaceuticals” (Hoechst Aktiengesellschaft, priority 1992, dated 1995):

Target: T1, Na^+ -dependent bile acid transport system (Oryctolagus cuniculus, UniProt Q28727)
T1 construct: Brush border membrane vesicles from the intestinal cells of the small intestine were prepared by the so-called Mg^2+ precipitation method; from tissue; host or cells: terminal ileum (terminal 7/10 of small intestine) of male New Zealand rabbits, brush border membrane vesicles
T1 sequence (Q28727 1-347): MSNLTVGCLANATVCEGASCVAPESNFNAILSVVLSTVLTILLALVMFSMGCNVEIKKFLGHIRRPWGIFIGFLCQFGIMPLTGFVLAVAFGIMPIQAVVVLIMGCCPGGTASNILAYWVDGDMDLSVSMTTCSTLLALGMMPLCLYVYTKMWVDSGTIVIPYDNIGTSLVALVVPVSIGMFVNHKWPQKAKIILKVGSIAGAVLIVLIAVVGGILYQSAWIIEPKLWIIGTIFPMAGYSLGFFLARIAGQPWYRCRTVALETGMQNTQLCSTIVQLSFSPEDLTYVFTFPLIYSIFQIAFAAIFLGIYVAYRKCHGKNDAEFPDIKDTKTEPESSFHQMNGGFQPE
Assay: inhibition of Na+-dependent [3H]-taurocholate absorption in brush border membrane vesicles of rabbit ileum (membrane filtration technique)
Format: biochemical
Conditions: 50 μM taurocholate, customarily 1 minute, pH 7.4; for IC50Na (TCDC) / IC50Na (Substance): quotient of IC50Na of the standard TCDC and of the substance, Na+-dependent transport (difference Na-T-B minus K-T-B); for IC50 (TCDC) / IC50 (Substance): quotient of IC50 of the standard taurochenodeoxycholate (TCDC) and of the substance
Method: The biological testing of the compounds according to the invention was carried out by determining the inhibition of [^3 H]-taurocholate absorption in brush border membrane vesicles of the rabbit ileum. The inhibition test was carried out as follows:
Brush border membrane vesicles from the intestinal cells of the small intestine were prepared by the so-called Mg^2+ precipitation method. Male New Zealand rabbits (2 to 2.5 kg body weight) were sacrificed by intravenous injection of 0.5 ml of an aqueous solution of 2.5 mg of tetracaine HCl, 100 T 61® and 25 mg of mebezonium iodide. The small intestine was removed and rinsed with ice-cold physiological saline solution. The terminal 7/10 of the small intestine (measured in the oral-rectal direction, i.e. the terminal ileum, which contains the active Na^+ -dependent bile acid transport system) were used for the preparation of the brush border membrane vesicles. The intestines were frozen under nitrogen at -80° C. in plastic bags. For the preparation of the membrane vesicles, the frozen intestines were thawed at 30° C. in a water bath. The mucosa was scraped off and suspended in 60 ml of ice-cold 12 mM tris/HCl buffer (pH 7.1)/300 mM mannitol, 5 mM EGTA/ 10 mg/l of phenylmethylsulfonyl fluoride/l mg/l of trypsin inhibitor from soybeans (32 U/mg)/0.5 mg/l of trypsin inhibitor from bovine lung (193 U/mg)/5 mg/l of bacitracin. After dilution to 300 ml with ice-cold distilled water, the suspension was homogenized using an Ultraturrax (18-rod, IKAWerk Staufen, FRG) for 3 minutes at 75% maximum power with ice-cooling. After addition of 3 ml of 1M MgCl2 solution (final concentration 10 mM), the homogenate was allowed to stand at 0° C. for exactly 1 minute. As a result of addition of Mg^2+, the cell membranes aggregate and precipitate with the exception of the brush border membranes. After centrifugation at 3000×g for 15 minutes (5000 rpm, SS-34 rotor), the precipitate is discarded and the supernatant which contains the brush border membranes is centrifuged at […] for 30 minutes (15,000 rpm, SS-34 rotor). The supernatant was discarded and the precipitate was rehomogenized in 60 ml of 12 mM tris/HCl buffer (pH 7.1)/60 mM mannitol/5 mM EGTA using a Potter Elvejhem homogenizer (Braun Melsungen, 900 rpm, 10 strokes). After addition of 0.1 ml of 1M MgCl2 solution and an incubation time of 15 minutes at 0° C., centrifugation was once more carried out at 3000×g for 15 minutes. The supernatant was then centrifuged again at 46,000×g (15,000 rpm, SS-34 rotor) for 30 minutes. The precipitate was taken up in 30 ml of 10 mM tris/hepes buffer (pH 7.4)/300 mM mannitol and homogeneously resuspended at 1000 rpm by 20 strokes in a Potter Elvejhem homogenizer. After centrifugation at 48,000×g (20,000 rpm, SS-34 rotor) for 30 minutes, the precipitate was taken up in 0.5 to 2 ml of tris/HEPES buffer (pH 7.4)/280mM mannitol (final concentration 20 mg/ml) and resuspended with the aid of a tuberculin syringe having a 27 gauge needle. The vesicles were either used immediately after preparation for transport investigations or stored in liquid nitrogen at -196° C. in 4 mg portions.
The absorption of substrates in the brush border membrane vesicles described above was determined by means of the so-called membrane filtration technique. 10 μl of the vesicle suspension (100 μg of protein) were pipetted as drops onto the wall of a polystyrene incubation tube (11×70 mm) which contained the incubation medium with the appropriate ligands (90 μl). The incubation medium contained 0.75 μl=0.75 μCi of [^3 H(G)]-taurocholate (specific activity: 2.1 Ci/mMol)/0.5 μl of 10 mM taurocholate/8.75 μl of sodium transport buffer (10 mM tris/HEPES (pH 7.4)/100 mM mannitol/100 mM NaCl) (Na-T-B) or 8.75 μl of potassium transport buffer (10 mM tris/hepes (pH 7.4)/100 mM mannitol/100 mM KCl) (K-T-B) and 80 μl of the inhibitor solution concerned, depending on the experiment, dissolved in Na-T buffer or K-T buffer. […]

SMILES: CC(CCC(=O)O)C1CCC2C3C(O)CC4CC(OCCNC(=O)C5C(C(=O)NCCOC6CCC7(C)C(C6)CC(O)C6C7CC(O)C7(C)C(C(C)CCC(=O)O)CCC67)C(c6ccccc6)C5C(=O)NCCOC5CCC6(C)C(C5)CC(O)C5C6CC(O)C6(C)C(C(C)CCC(=O)O)CCC56)CCC4(C)C3CC(O)C12C (stereo not shown) [Example 45]
- IC50Na (TCDC) / IC50Na (Substance): 0.23
- IC50 (TCDC) / IC50 (Substance): 0.32

SMILES: C[C@H](CCC(=O)O)[C@H]1CC[C@H]2[C@@H]3[C@H](O)C[C@@H]4C[C@@H](NC(=O)CCOCCCOCC(C)(COCCCOCCC(=O)N[C@H]5CC[C@@]6(C)[C@@H](C5)C[C@@H](O)[C@@H]5[C@@H]6C[C@H](O)[C@]6(C)[C@@H]([C@H](C)CCC(=O)O)CC[C@@H]56)COCCCOCCC(=O)N[C@H]5CC[C@@]6(C)[C@@H](C5)C[C@@H](O)[C@@H]5[C@@H]6C[C@H](O)[C@]6(C)[C@@H]([C@H](C)CCC(=O)O)CC[C@@H]56)CC[C@]4(C)[C@H]3C[C@H](O)[C@]12C [Example 11]
- IC50Na (TCDC) / IC50Na (Substance): 0.36
- IC50 (TCDC) / IC50 (Substance): 0.29

SMILES: C[C@H](CCC(=O)O)[C@H]1CC[C@H]2[C@@H]3[C@H](O)C[C@@H]4C[C@@H](OCCNC(=O)CCOCC(C)(COCCC(=O)NCCO[C@H]5CC[C@@]6(C)[C@@H](C5)C[C@@H](O)[C@@H]5[C@@H]6C[C@H](O)[C@]6(C)[C@@H]([C@H](C)CCC(=O)O)CC[C@@H]56)COCCC(=O)NCCO[C@H]5CC[C@@]6(C)[C@@H](C5)C[C@@H](O)[C@@H]5[C@@H]6C[C@H](O)[C@]6(C)[C@@H]([C@H](C)CCC(=O)O)CC[C@@H]56)CC[C@]4(C)[C@H]3C[C@H](O)[C@]12C [Example 10]
- IC50Na (TCDC) / IC50Na (Substance): 0.26
- IC50 (TCDC) / IC50 (Substance): 0.24

SMILES: CC(CCC(=O)O)C1CCC2C3C(O)CC4CC(OCCNC(=O)C5C(C(=O)NCCOC6CCC7(C)C(C6)CC(O)C6C7CC(O)C7(C)C(C(C)CCC(=O)O)CCC67)C(C(=O)NCCOC6CCC7(C)C(C6)CC(O)C6C7CC(O)C7(C)C(C(C)CCC(=O)O)CCC67)C5C(=O)NCCOC5CCC6(C)C(C5)CC(O)C5C6CC(O)C6(C)C(C(C)CCC(=O)O)CCC56)CCC4(C)C3CC(O)C12C (stereo not shown) [Example 47]
- IC50Na (TCDC) / IC50Na (Substance): 0.23
- IC50 (TCDC) / IC50 (Substance): 0.24

SMILES: C[C@H](CCC(=O)O)[C@H]1CC[C@H]2[C@@H]3[C@H](O)C[C@@H]4C[C@H](CCNC(=O)c5cc(C(=O)NCC[C@@H]6CC[C@@]7(C)[C@@H](C6)C[C@@H](O)[C@@H]6[C@@H]7C[C@H](O)[C@]7(C)[C@@H]([C@H](C)CCC(=O)O)CC[C@@H]67)cc(C(=O)NCC[C@@H]6CC[C@@]7(C)[C@@H](C6)C[C@@H](O)[C@@H]6[C@@H]7C[C@H](O)[C@]7(C)[C@@H]([C@H](C)CCC(=O)O)CC[C@@H]67)c5)CC[C@]4(C)[C@H]3C[C@H](O)[C@]12C [Example 18]
- IC50Na (TCDC) / IC50Na (Substance): 0.76
- IC50 (TCDC) / IC50 (Substance): 0.85

SMILES: C[C@H](CCC(=O)O)[C@H]1CC[C@H]2[C@@H]3[C@H](O)C[C@@H]4C[C@@H](OCCCCCCNC(=O)c5cc(C(=O)NCCCCCCO[C@H]6CC[C@@]7(C)[C@@H](C6)C[C@@H](O)[C@@H]6[C@@H]7C[C@H](O)[C@]7(C)[C@@H]([C@H](C)CCC(=O)O)CC[C@@H]67)cc(C(=O)NCCCCCCO[C@H]6CC[C@@]7(C)[C@@H](C6)C[C@@H](O)[C@@H]6[C@@H]7C[C@H](O)[C@]7(C)[C@@H]([C@H](C)CCC(=O)O)CC[C@@H]67)c5)CC[C@]4(C)[C@H]3C[C@H](O)[C@]12C [Example 21]
- IC50Na (TCDC) / IC50Na (Substance): 0.59
- IC50 (TCDC) / IC50 (Substance): 0.29

SMILES: C[C@H](CCC(=O)O)[C@H]1CC[C@H]2[C@@H]3[C@H](O)C[C@@H]4C[C@@H](OCCCCCNC(=O)[C@]5(C)C[C@](C)(C(=O)NCCCCCO[C@H]6CC[C@@]7(C)[C@@H](C6)C[C@@H](O)[C@@H]6[C@@H]7C[C@H](O)[C@]7(C)[C@@H]([C@H](C)CCC(=O)O)CC[C@@H]67)C[C@](C)(C(=O)NCCCCCO[C@H]6CC[C@@]7(C)[C@@H](C6)C[C@@H](O)[C@@H]6[C@@H]7C[C@H](O)[C@]7(C)[C@@H]([C@H](C)CCC(=O)O)CC[C@@H]67)C5)CC[C@]4(C)[C@H]3C[C@H](O)[C@]12C [Example 31]
- IC50Na (TCDC) / IC50Na (Substance): 0.93
- IC50 (TCDC) / IC50 (Substance): 1.26

SMILES: C[C@H](CCC(=O)O)[C@H]1CC[C@H]2[C@@H]3[C@H](O)C[C@@H]4C[C@@H](OCCCCCCNC(=O)[C@]5(C)C[C@](C)(C(=O)NCCCCCCO[C@H]6CC[C@@]7(C)[C@@H](C6)C[C@@H](O)[C@@H]6[C@@H]7C[C@H](O)[C@]7(C)[C@@H]([C@H](C)CCC(=O)O)CC[C@@H]67)C[C@](C)(C(=O)NCCCCCCO[C@H]6CC[C@@]7(C)[C@@H](C6)C[C@@H](O)[C@@H]6[C@@H]7C[C@H](O)[C@]7(C)[C@@H]([C@H](C)CCC(=O)O)CC[C@@H]67)C5)CC[C@]4(C)[C@H]3C[C@H](O)[C@]12C [Example 16]
- IC50Na (TCDC) / IC50Na (Substance): 0.31
- IC50 (TCDC) / IC50 (Substance): 0.37

SMILES: C[C@H](CCC(=O)O)[C@H]1CC[C@H]2[C@@H]3[C@H](O)C[C@@H]4C[C@@H](OCCNC(=O)CCC(CCC(=O)NCCO[C@H]5CC[C@@]6(C)[C@@H](C5)C[C@@H](O)[C@@H]5[C@@H]6C[C@H](O)[C@]6(C)[C@@H]([C@H](C)CCC(=O)O)CC[C@@H]56)(CCC(=O)NCCO[C@H]5CC[C@@]6(C)[C@@H](C5)C[C@@H](O)[C@@H]5[C@@H]6C[C@H](O)[C@]6(C)[C@@H]([C@H](C)CCC(=O)O)CC[C@@H]56)[N+](=O)[O-])CC[C@]4(C)[C@H]3C[C@H](O)[C@]12C [Example 7]
- IC50Na (TCDC) / IC50Na (Substance): 0.34
- IC50 (TCDC) / IC50 (Substance): 0.29

SMILES: C[C@H](CCC(=O)O)[C@H]1CC[C@H]2[C@@H]3[C@H](O)C[C@@H]4C[C@@H](NC(=O)[C@]5(C)C[C@](C)(C(=O)N[C@H]6CC[C@@]7(C)[C@@H](C6)C[C@@H](O)[C@@H]6[C@@H]7C[C@H](O)[C@]7(C)[C@@H]([C@H](C)CCC(=O)O)CC[C@@H]67)C[C@](C)(C(=O)N[C@H]6CC[C@@]7(C)[C@@H](C6)C[C@@H](O)[C@@H]6[C@@H]7C[C@H](O)[C@]7(C)[C@@H]([C@H](C)CCC(=O)O)CC[C@@H]67)C5)CC[C@]4(C)[C@H]3C[C@H](O)[C@]12C [Example 33]
- IC50Na (TCDC) / IC50Na (Substance): 1.04
- IC50 (TCDC) / IC50 (Substance): 0.77

SMILES: C[C@H](CCC(=O)O)[C@H]1CC[C@H]2[C@@H]3[C@H](O)C[C@@H]4C[C@@H](OCCCCCNC(=O)c5cc(C(=O)NCCCCCO[C@H]6CC[C@@]7(C)[C@@H](C6)C[C@@H](O)[C@@H]6[C@@H]7C[C@H](O)[C@]7(C)[C@@H]([C@H](C)CCC(=O)O)CC[C@@H]67)cc(C(=O)NCCCCCO[C@H]6CC[C@@]7(C)[C@@H](C6)C[C@@H](O)[C@@H]6[C@@H]7C[C@H](O)[C@]7(C)[C@@H]([C@H](C)CCC(=O)O)CC[C@@H]67)c5)CC[C@]4(C)[C@H]3C[C@H](O)[C@]12C [Example 20]
- IC50Na (TCDC) / IC50Na (Substance): 0.86
- IC50 (TCDC) / IC50 (Substance): 0.43
